Measured values reported in patent US7739055B2, “Methods and systems for generating and evaluating peptides” (priority 2005, dated 2010).
In brackets after ≈: the same amount, converted by molar mass. Read-outs that look alike come from different tables or passages of the source. Where a SMILES comes first, the peptide text is derived from it.

Columns and labels:
[1] = first concentration that prohibits growth by OD at 24 hours, Table 1

Compound	MIC E. coli (Escherichia coli; 24 h)	MIC B. cereus (B. cereus; 24 h)	MIC B. cereus (B. cereus; [1])	MIC E. coli (Escherichia coli; [1])	MIC B. cereus (B. cereus)
CC[C@H](C)[C@H](NC(=O)[C@H](CCSC)NC(=O)[C@H](C)NC(=O)[C@@H]1CCCN1C(=O)[C@@H](NC(=O)[C@@H](NC(=O)[C@H](CCCCN)NC(=O)[C@@H](NC(=O)[C@H](CC(C)C)NC(=O)CNC(=O)CNC(=O)[C@H](CC(C)C)NC(=O)[C@@H](N)Cc1ccccc1)[C@@H](C)CC)[C@@H](C)CC)C(C)C)C(=O)N[C@@H](CS)C(=O)N[C@@H](C)C(=O)N[C@H](C(=O)N[C@H](C(=O)N[C@@H](CCCCN)C(=O)N[C@@H](CCCCN)C(=O)N[C@@H](CS)C(=O)O)[C@@H](C)O)C(C)C [Ranalexin] (H-FLGGLIKIVPAMICAVTKKC-OH; N-terminus and C-terminus assumed)	64 µg/mL (≈ 30.4 µM)	32 µg/mL (≈ 15.2 µM)	–	–	–
CC(C)[C@H](N)C(=O)N[C@H](C(=O)N[C@@H](Cc1ccccc1)C(=O)N[C@@H](CCCNC(=N)N)C(=O)N[C@H](C(=O)N[C@@H](C)C(=O)N[C@@H](CO)C(=O)N[C@@H](CCCCN)C(=O)N[C@H](C(=O)N[C@@H](Cc1ccccc1)C(=O)N1CCC[C@H]1C(=O)N[C@@H](C)C(=O)N[C@H](C(=O)N[C@@H](Cc1ccc(O)cc1)C(=O)N[C@@H](CS)C(=O)N[C@H](C(=O)N[C@H](C(=O)N[C@@H](CO)C(=O)N[C@@H](CCCCN)C(=O)N[C@@H](CCCCN)C(=O)O)C(C)C)[C@@H](C)O)C(C)C)C(C)C)C(C)C)C(C)C [Peptide 2] (H-VVFRVASKVFPAVYCTVSKK-OH; N-terminus and C-terminus assumed)	128 µg/mL (≈ 57.4 µM)	–	+ (MIC greater than 256 ug/mL)	–	–
TLVGVVAKLVATKIGSSPRA [Shuffled 56]	–	–	+ (MIC greater than 256 ug/mL)	+ (MIC greater than 256 ug/mL)	–
CC[C@H](C)[C@H](NC(=O)[C@@H](NC(=O)[C@H](CCCCN)NC(=O)[C@H](C)NC(=O)[C@H](CC(C)C)NC(=O)[C@H](CCCCN)NC(=O)[C@H](CCCCN)NC(=O)CN)[C@@H](C)O)C(=O)N[C@@H](C)C(=O)N[C@@H](CCCCN)C(=O)N[C@@H](CCC(=O)O)C(=O)N[C@H](C(=O)N[C@@H](C)C(=O)N[C@@H](CCCCN)C(=O)N[C@@H](CCC(N)=O)C(=O)NCC(=O)N[C@@H](C)C(=O)N[C@@H](CCCCN)C(=O)N[C@@H](Cc1ccccc1)C(=O)N[C@@H](C)C(=O)O)C(C)C [Peptide 77] (H-GKKLAKTIAKEVAKQGAKFA-OH)	–	–	–	64 µg/mL (≈ 30.7 µM)	+ (key: +: MIC greater than 256 ug/mL; ++: MIC greater than 128 ug/mL, not sufficiently soluble to test as 256 ug/mL)
SALGRVASKVFPAVYCSITK [Peptide 15]	–	–	+ (MIC greater than 256 ug/mL)	+ (MIC greater than 256 ug/mL)	–
LYSPTCVKAAVSRFIGKVSA [Shuffled 15]	–	–	+ (MIC greater than 256 ug/mL)	+ (MIC greater than 256 ug/mL)	–
GLKKDALQSIVKKAQLAAMG [Shuffled 9]	–	–	+ (MIC greater than 256 ug/mL)	+ (MIC greater than 256 ug/mL)	–
AKKAQKSGAQTIVKIFAKGM [Shuffled 39]	–	–	+ (MIC greater than 256 ug/mL)	+ (MIC greater than 256 ug/mL)	–
SVKVAKSVIPSAVFAGGKVF [Shuffled 84]	–	–	+ (MIC greater than 256 ug/mL)	+ (MIC greater than 256 ug/mL)	–
VKDLAKFIAKTVAKQGGCYL [Peptide 33]	–	–	++ (MIC greater than 128 ug/mL, not sufficiently soluble to test as 256 ug/mL)	++ (MIC greater than 128 ug/mL, not sufficiently soluble to test as 256 ug/mL)	–
VVAKKFFVLVKGLAPVLSPS [Shuffled 42]	–	–	+ (MIC greater than 256 ug/mL)	+ (MIC greater than 256 ug/mL)	–
CC[C@H](C)[C@H](NC(=O)[C@@H](NC(=O)[C@H](CS)NC(=O)[C@H](Cc1ccc(O)cc1)NC(=O)[C@@H](NC(=O)[C@H](CO)NC(=O)[C@@H]1CCCN1C(=O)[C@@H](NC(=O)[C@@H](NC(=O)[C@H](CCCCN)NC(=O)[C@H](CO)NC(=O)[C@H](C)NC(=O)[C@H](CC(C)C)NC(=O)[C@H](CCCCN)NC(=O)[C@H](Cc1ccccc1)NC(=O)[C@@H](NC(=O)[C@@H](N)C(C)C)C(C)C)C(C)C)C(C)C)C(C)C)[C@@H](C)O)C(=O)N[C@H](C(=O)N[C@@H](CCCCN)C(=O)N[C@@H](CCCCN)C(=O)O)[C@@H](C)O [Peptide 88] (H-VVFKLASKVVPSVYCTITKK-OH; N-terminus and C-terminus assumed)	256 µg/mL (≈ 116 µM)	–	+ (MIC greater than 256 ug/mL)	–	–
CC[C@H](C)[C@H](NC(=O)[C@H](CCSC)NC(=O)[C@H](CO)NC(=O)[C@@H](NC(=O)[C@H](CC(C)C)NC(=O)[C@H](CO)NC(=O)[C@@H]1CCCN1C(=O)[C@@H](NC(=O)[C@@H](NC(=O)[C@H](CCCCN)NC(=O)[C@H](CO)NC(=O)[C@H](C)NC(=O)[C@@H](NC(=O)[C@H](CCCNC(=N)N)NC(=O)CNC(=O)[C@@H](NC(=O)[C@H](Cc1ccccc1)NC(=O)[C@H](CO)NC(=O)[C@@H](N)CC(C)C)C(C)C)C(C)C)C(C)C)C(C)C)[C@@H](C)CC)C(=O)N[C@@H](CCCCN)C(=O)O [Peptide 55] (H-LSFVGRVASKVVPSLISMIK-OH; N-terminus and C-terminus assumed)	256 µg/mL (≈ 120 µM)	–	+ (MIC greater than 256 ug/mL)	–	–
AATGTGKTAAFALPVLERLI [Peptide 38]	–	–	+ (MIC greater than 256 ug/mL)	+ (MIC greater than 256 ug/mL)	–
CC[C@H](C)[C@H](NC(=O)CNC(=O)[C@@H](NC(=O)[C@H](CCCCN)NC(=O)[C@H](CCCCN)NC(=O)[C@H](Cc1ccccc1)NC(=O)[C@H](CC(C)C)NC(=O)[C@H](CCCCN)NC(=O)[C@H](Cc1c[nH]c2ccccc12)NC(=O)[C@@H](N)CCCCN)[C@@H](C)CC)C(=O)NCC(=O)N[C@@H](CCCCN)C(=O)N[C@@H](Cc1ccccc1)C(=O)N[C@@H](CC(C)C)C(=O)N[C@@H](Cc1c[nH]cn1)C(=O)N[C@@H](CO)C(=O)N[C@@H](C)C(=O)N[C@@H](CCCCN)C(=O)N[C@@H](CCCCN)C(=O)N[C@@H](Cc1ccccc1)C(=O)O [Cec A Mag 2] (H-KWKLFKKIGIGKFLHSAKKF-OH; N-terminus and C-terminus assumed)	–	–	–	32 µg/mL (≈ 13.3 µM)	+ (key: +: MIC greater than 256 ug/mL; ++: MIC greater than 128 ug/mL, not sufficiently soluble to test as 256 ug/mL)
CC(C)C[C@H](NC(=O)[C@H](CCCCN)NC(=O)[C@H](Cc1ccccc1)NC(=O)[C@@H](NC(=O)[C@H](C)NC(=O)[C@@H]1CCCN1C(=O)[C@@H](N)CC(C)C)C(C)C)C(=O)N[C@@H](C)C(=O)N[C@@H](CO)C(=O)N[C@@H](CCCCN)C(=O)N[C@H](C(=O)N[C@@H](Cc1ccccc1)C(=O)N1CCC[C@H]1C(=O)N[C@@H](C)C(=O)N[C@H](C(=O)N[C@@H](Cc1ccc(O)cc1)C(=O)N[C@@H](CS)C(=O)N[C@@H](CCCCN)C(=O)N[C@@H](C)C(=O)N[C@@H](CO)C(=O)O)C(C)C)C(C)C [Peptide 62] (H-LPAVFKLASKVFPAVYCKAS-OH; N-terminus and C-terminus assumed)	128 µg/mL (≈ 59.8 µM)	–	+ (MIC greater than 256 ug/mL)	–	–
